# From patent US10092541B2, “Methods for the treatment of diseases ameliorated by PDE4 inhibition using dosage titration of apremilast” (CELGENE CORPORATION, priority 2014, dated 2018)
# Key:
# [1] = system: patients with moderate to severe atopic dermatitis; experiment: Open-label pilot study of 2 doses of apremilast in adult atopic dermatitis; assay type: in vivo, human; conditions: for DLQI scores, average reduction / EASI scores, average reduction / patients who reduced their IGA score by 1 U / average reduction in itch using a VAS / DLQI score, mean after treatment / EASI score, mean after treatment / VAS for pruritus, mean after treatment: 3 months; for average reduction in itch using a VAS: intent-to-treat; for EASI after treatment: from 21.1
# peripheral whole blood = experiment: Differential gene expression analyses (microarray) in atopic dermatitis patients; assay type: in vivo, human
# Method: As an exploratory end point to potentially identify immune pathways affected by apremilast, peripheral whole blood was obtained for differential gene expression analyses at baseline and after 3 (cohort 1) and 6 (cohort 2) months of treatment to determine apremilast's potential mechanism of action in patients with atopic dermatitis. RNA isolation and microarray analyses were performed in the Oregon Health and Science University Gene Microarray Shared Resource. Total RNA was isolated from PAXGene tubes using the PAXGene Blood RNA Isolation kit (QIAGEN Inc). RNA quantity was measured by spectrophotometric analysis; RNA quality was evaluated by size analysis on the Bioanalyzer 2100 (Agilent Technologies Inc). All samples passed RNA quality assessment review.
# RNA samples were labeled using the OvationWTAPico Amplification and Labeling System (NuGEN Technologies Inc). Fifty nanograms of each sample were amplified with the Ovation WTA Pico kit, converted to sense complementary DNA (cDNA) with the WT-Ovation Exon Module, version 1, kit, and labeled with the Encore Biotin Module kit. Hybridization and array processing were performed as described in the NuGEN Encore Biotin Module User Guide http://www.nugeninc.com/tasks/sites/nugen/assets/File/user_guides/userguide_encore_biotin.pdf). Two micrograms of each labeled cDNA target werehybridized with the GeneChip Human Gene 1.0 ST array (Affymetrix) and scanned on the Affymetrix GeneChip 3000 Scanner. The array image was processed with Affymetrix Command Console (version 3.1.1). Data were normalized using the robust multichip average method.
# Differential expression analyses were performed on 16 paired samples. All putatively differentially expressed genes were based on false discovery rate-adjusted P values<0.05. Based on the putative differentially expressed gene list, both enriched pathways and functional gene ontologic characteristics were identified (P<0.05 for hypergeometric test) in the GoStats package within the Bioconductor statistical programming environment (http://www.bioconductor.org).
# [2] = cohort 2, 30 mg twice a day, 6 months
# [3] = cohort 1, 20 mg twice a day, baseline vs 3 months
smiles,measurement,setting,value
"CCOc1cc([C@@H](CS(C)(=O)=O)N2C(=O)c3cccc(NC(C)=O)c3C2=O)ccc1OC [apremilast, (+)-2-[1-(3-ethoxy-4-methoxyphenyl)-2-methylsulfonylethyl]-4-acetylaminoisoindoline-1,3-dione]",DLQI after treatment,"[1]; both cohorts combined, post hoc intent-to-treat, mean baseline 11.6",4.7
same,EASI score after treatment,"[1]; both cohorts combined, post hoc intent-to-treat, mean baseline 24.8",16.2
same,VAS after treatment,"[1]; both cohorts combined, post hoc intent-to-treat, mean baseline 52.0 mm",31.7 mm
same,time to statistically significant decline in pruritus,"[1]; cohort 1, 20 mg twice a day",≤ 2 weeks
same,"DLQI scores, average reduction","[1]; cohort 1, 20 mg twice a day",55%
same,"EASI scores, average reduction","[1]; cohort 1, 20 mg twice a day",19%
same,patients who reduced their IGA score by 1 U,"[1]; cohort 1, 20 mg twice a day, 6 patients",1
same,average reduction in itch using a VAS,"[1]; cohort 1, 20 mg twice a day",49%
same,"DLQI score, mean after treatment","[1]; cohort 1, 20 mg twice a day, mean baseline 14.2",6.2
same,"EASI score, mean after treatment","[1]; cohort 1, 20 mg twice a day, mean baseline 30.9",22.1
same,"VAS for pruritus, mean after treatment","[1]; cohort 1, 20 mg twice a day, mean baseline 62.3 mm",30.5 mm
same,time to statistically significant clinical improvement in atopic dermatitis,"[1]; cohort 2, 30 mg twice a day",≤ 2 weeks
same,patients who achieved an IGA score of mild,"[1]; cohort 2, 30 mg twice a day, 3-month time point",One patient
same,"DLQI scores, average reduction","[1]; cohort 2, 30 mg twice a day",58%
same,"EASI scores, average reduction","[1]; cohort 2, 30 mg twice a day",39%
same,patients who reduced their IGA score by 1 U,"[1]; cohort 2, 30 mg twice a day, 10 patients",Two of 10 patients
same,average reduction in itch using a VAS,"[1]; cohort 2, 30 mg twice a day",25%
same,"VAS for pruritus, mean after treatment","[1]; cohort 2, 30 mg twice a day, baseline 45.8 mm",32.4 mm
same,"DLQI score, mean after treatment","[1]; cohort 2, 30 mg twice a day, mean baseline 10.1",3.8
same,"EASI score, mean after treatment","[1]; cohort 2, 30 mg twice a day, mean baseline 21.4",13.2
same,"patients improved at least 1 U in the IGA, %",[1]; [2],50%
same,"patients improved at least 1 U in the IGA, number",[1]; [2],Five patients
same,patients who achieved an IGA of almost clear,[1]; [2],1
same,patients who reached an IGA of mild,[1]; [2],Four of these 5
same,EASI after treatment,"[1]; cohort 2, 30 mg twice a day, 6 months, intent to treat",11.6
same,VAS after treatment,"[1]; cohort 2, 30 mg twice a day, 6 months, intent to treat, from 45.8 mm",25.3 mm
same,DLQI after treatment,"[1]; cohort 2, 30 mg twice a day, 6 months, per protocol, from 10.1",4.0
same,EASI after treatment,"[1]; cohort 2, 30 mg twice a day, 6 months, per protocol",10.4
same,VAS after treatment,"[1]; cohort 2, 30 mg twice a day, 6 months, per protocol, from 45.8",22.7
same,patients who reached an IGA score of clear or almost clear,"[1]; either cohort (20 mg or 30 mg twice a day), 3-month time point",No patient
same,BAD (bcl-2 antagonist of cell death) phosphorylation pathway gene expression,peripheral whole blood; [3],significant differential expression
same,IL-12 signaling (gene ontologic analysis),peripheral whole blood; [3],significant differential expression
same,cAMP response element binding (CREB) pathway gene expression,peripheral whole blood; [3],significant differential expression
same,chemokine-mediated signaling (gene ontologic analysis),peripheral whole blood; [3],significant differential expression
same,cytoskeleton remodeling (gene ontologic analysis),peripheral whole blood; [3],significant differential expression
same,regulation of immune complex clearing by monocytes and macrophages (gene ontologic analysis),peripheral whole blood; [3],significant differential expression
same,CCR3 signaling in eosinophils gene expression,"peripheral whole blood; cohort 2, 30 mg twice a day, baseline vs 6 months",significant differential expression
